Drawing on ChEMBL document CHEMBL1151498, “Synthesis and biological evaluation of 23-oxa-, 23-thia- and 23-oxa-24-oxo-1,25-dihydroxyvitamin D3” (1993), this text covers Relative activity and Relative affinity for three molecules.

The test system of test [1] is HL-60. The test can be described thus: Compound was tested to induce differentiation of human promyeloid leukemia cells (HL-60). Format: functional.
Test [2] has as its target T1, Vitamin D3 receptor (Homo sapiens) (UniProt P11473).
T1 sequence (whole entry): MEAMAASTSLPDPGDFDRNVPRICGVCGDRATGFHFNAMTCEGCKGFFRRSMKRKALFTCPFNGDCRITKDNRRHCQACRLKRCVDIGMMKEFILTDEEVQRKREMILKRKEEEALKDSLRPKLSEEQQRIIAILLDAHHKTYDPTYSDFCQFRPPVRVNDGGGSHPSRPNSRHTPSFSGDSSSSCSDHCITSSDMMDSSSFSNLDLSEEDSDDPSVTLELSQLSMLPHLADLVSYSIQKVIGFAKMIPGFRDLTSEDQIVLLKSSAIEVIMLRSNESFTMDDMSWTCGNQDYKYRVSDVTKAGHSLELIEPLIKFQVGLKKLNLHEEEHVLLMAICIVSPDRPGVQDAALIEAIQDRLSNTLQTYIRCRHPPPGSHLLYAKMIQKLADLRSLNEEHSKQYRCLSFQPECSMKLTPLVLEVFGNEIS
Nature of the test: Compound was tested to assess the relative affinity for the intestinal mucosal vitaminD receptor.

The test system of test [3] is HL-60. The test can be described thus: Ability to induce differentiation of human promyeloid leukemia cells (HL-60). Format: functional.

`C=C1/C(=C\C=C2/CCC[C@]3(C)[C@@H]([C@H](C)COC(=O)C(C)(C)O)CC[C@@H]23)C[C@@H](O)C[C@@H]1O`: the Relative activity in test [1] is on record as 6. The same molecule gave a Relative affinity in test [2] of 26.
As for `C=C1/C(=C\C=C2/CCC[C@]3(C)[C@@H]([C@H](C)COCC(C)(C)O)CC[C@@H]23)C[C@@H](O)C[C@@H]1O`, the Relative activity in test [3] is 9. In test [2], this molecule returned a Relative affinity of 2.
The molecule `C=C1/C(=C\C=C2/CCC[C@]3(C)[C@@H]([C@H](C)CSCC(C)(C)O)CC[C@@H]23)C[C@@H](O)C[C@@H]1O` gave a Relative activity in test [1] of 29. The molecule also showed a Relative affinity in test [2] of 13.
